Legend:
[1] = tested on: IL1A; assay: Gene expression custom microarray, human skin fibroblasts (Example 1): IL1A; assay type: cell-based; conditions: 24 hr; for fold induction at 10 µM: Skin fibroblast, read-out: IL1A↓ gene expression, fold increase or decrease vs untreated cells
From the text: Cell cultures: A human skin fibroblast cell culture (or cultures) was obtained through the Coriell Cell Repository from the National Institute on Aging Cell Repository (Camden, N.J.), or Promocell GmbH (Heidelberg, Germany). The initial culture was selected from the following cell lines: AG13066, AG11557, AG11796 or GM03651E. The cell lines were derived from donors as follows:
Experimental phase: When the appropriate quantity of cells had been grown, they were detached as described above, but at the final step were seeded into each well of one or more 6 well dishes. Each well received 2 ml of the cell suspension so they were seeded equally. The dishes were returned to the incubator until 85-95% confluency was reached.
It is at this stage that all wells were rinsed in PBS after aspirating the growth media. The compound(s) to be tested were previously mixed into a suitable solvent (e.g., DMSO or ethanol) that can be diluted to the desired concentration of test compound (10 μl) in the culture wells without exceeding maximum solvent concentrations and adversely effecting cell viability, and mixed with basal media. NOTE: Standard maximum levels of solvent are 0.1% for DMSO and 0.5% for ETOH. The concentration of each test compound is found in Tables 1 & 2.
Every 2 wells on the 6 well plate served as a biological replicate for the purposes of RNA isolation and genetic expression evaluations making each 6 well dish an n=3 for the test compound(s) contained in the media. Negative control plates (no test compound(s) and only basal media) were also generated. The plates were returned to the incubator for 24 hrs.
(§1) At the end of the 24 hr time period, the plates were removed from the incubator, the test media aspirated, and the cells rinsed with PBS. RNA isolation is performed using the BioRad Aurum Total RNA Mini Kit (Hercules, Calif.) per manufacturer's protocol; which is described, in brief, below: • Add 350 μl of lysis buffer to each well. Pipet multiple times to ensure thorough lysis. Add lysed cells to the collection tube. • Add 350 μl of 70% ETOH to the collection tube and mix thoroughly. • Pipet the generated lysate onto the spin column placed in a new 2 ml tube. Centrifuge for 30 sec between 8,000 and 10,000 g. • Place the spin column containing the now bound RNA, in a new 2 ml tube. Add 700 μl of low stringency wash solution to the spin column. Centrifuge for 30 sec between 8,000 and 10,000 g. Discard the flow through and replace spin column. • Add 80 μl of DNase I dilution to the spin column and incubate at room temperature for 15 minutes. • Add 700 μl of high stringency wash solution to the column and centrifuge for 30 sec between 8,000 and 10,000 g. Discard flow through. • Add 700 μl of low stringency wash solution to the column and centrifuge for 60 sec between 8,000 and 10,000 g. Discard flow through. • Centrifuge for 2 minutes to remove residual wash solution. • Transfer spin column to new 1.5 ml collection tube and add 80 μl of elution solution to the column. Allow 1 minute for saturation of the membrane and then centrifuge for 2 minutes to complete the RNA elution. • Quantify the quantity of RNA and store at −20 C° until use (no more than 1 month)
The genes tested were: • Cannabinoid receptor 1 (CB1(CNR1)) • Cannabinoid receptor 2 (CB2 (CNR2)) • Fatty acid amide hydrolase (FAAH) • Monoacylglycerol lipase (MGLL, i.e., MAGL) • Peroxisome proliferator-activated receptor gamma (PPARG) • Nuclear factor kappa-light-chain-enhancer of activated B cells (NFκβ) • Interleukin 1 Alpha (IL1alpha) • Cyclooxygenase 1 (PTGS1, i.e., COX1) • Transient receptor potential cation channel subfamily A member 1 (TRPA1) • Transient receptor potential cation channel subfamily V member 1 (TRPV1) • Transient receptor potential cation channel subfamily M member 8 (TRPM8) • Hemoglobin Subunit Beta (HBB) REFERENCE GENE • Ribosomal Protein L13a (RPL13A) REFERENCE GENE […]

[2] = tested on: NFKB1; assay: Gene expression custom microarray, pooled keratinocyte line (Example 3): NFKB1; assay type: cell-based, human; conditions: pooled keratinocytes, 20 ppm, 24 hr
Protocol: NOTE: Standard maximum levels of solvent are 0.1% for DMSO and 0.5% for ETOH.
The plates were returned to the incubator for 24 hrs.
as §1, with “RNA isolation is performed using the BioRad Aurum Total RNA Mini Kit (Hercules, Calif.) per manufacturer's protocol; which is described, in brief, below: • Add 350 μl of lysis buffer to each well.” left out

Row | Structure (SMILES) | fold induction at 10 µM [1] | ↓NFKB1 gene expression, fold increase or decrease vs untreated cells [2] | IL1A↓ gene expression, fold increase or decrease vs untreated cells ([1]; 10 uM)
1 | C=C(C)[C@@H]1CCC(C)=C[C@H]1c1c(O)cc(CCCCC)cc1O [CBD, cannabidiol, reference compound] | 20.5 | 2.5 fold | 
2 | CCCCCCCCCCCCCCCC(=O)NCCO [N-palmitoylethanolamide] |  | −2.2 fold | −1.2 fold
3 | CC(C)[C@]12O[C@H]1[C@@H]1O[C@]13[C@]1(O[C@H]1C[C@H]1C4=C(CC[C@@]13C)C(=O)OC4)[C@@H]2O [Triptolide] | 15.5 | −4.2 fold | 

Reference: patent US20220202739A1, “ENDOCANNABINOID MIMETIC AND ANTI-INFLAMMATORY COMPOUND CONTAINING COMPOSITIONS, METHODS OF PREPARATION AND USES THEREOF” (priority 2019, published 2022)
